Experimental data reported in publication PMC9453454, “Design, synthesis, and anticancer activity of three novel palbociclib derivatives” (Frontiers in Oncology, 2022).

How the values were obtained:
[1] = system: Cyclin D, CDK4, CDK6, Rb, and p-Rb; experiment: Western blot of Cyclin D-CDK4/6-Rb pathway proteins in NCI-H460; assay type: cell-based, human; conditions: NCI-H460, 0, 0.5, 1, 2 μM for 24 h
Protocol: (§1) NCI-H460 cells were harvested in logarithmic growth phase and seeded into six-well plates at a density of 5.0 × 10^3 cells/well. After being incubated for 48 h, the cells were harvested with 0.25% Trypsin after exposed to various concentrations of HP-1 (0, 0.5, 1, 2 μM), 10-HCPT (2 μM), and pabocini (2 μM) for 24 h.Then, precooled radio-immunoprecipitation assay (RIPA) lysates [10 mM Tris–HCl, 1 mM EDTA, 1% sodium dodecyl sulfate (SDS), 1 mM dithiothreitol (DTT), 0.1 mM phenylmethylsulfonyl fluoride (PMSF), protease inhibitors, 1% Nonidet P-40, pH 8] were added to them and placed on ice to lyse the cells for 30 min. After centrifugation at 10,000 rpm and 4°C for 10 min, the supernatant was collected to obtain soluble proteins. Lysates were centrifuged at 10,000 rpm for 20 min at 4°C, and the supernatant was collected.
(§2) The absorbance value was measured at 562 nm using a microplate analyzer to calculate the protein content. An equal amount of protein was separated by 10% SDS–polyacrylamide gel electrophoresis (SDS-PAGE) gels and transferred onto PVDF membrane. […] Finally, the membrane was placed on the membrane carrier plate, and the bands were detected with enhanced chemiluminescence reagent to indicate the protein expression.

MDA-MB-231 cells = experiment: MTT in vitro cytotoxicity, MDA-MB-231; assay type: cell-based, human; conditions: MDA-MB-231 human breast cancer cells, MTT, 48 h; read-out: IC50
Protocol: (§3) Human lung cancer cells (NCI-H460, NCI-H1299, and A549), human breast cancer cells (MDA-MB-231, MDA-MB-453, and MCF-7), human liver cancer cells (Huh-7 and HepG2), human colon cancer cells (coca-2, HT-29, and HCT116), human cervical cancer cells (HeLa), human normal lung cells (BEAS-2B), and human normal […] (MCF-10) were from the State Key Laboratory of Pharmaceutical Biotechnology, Nanjing University. NCI-H460 were cultured in 1640 medium containing 10% fetal bovine serum (FBS). MDA-MB-231 were cultured in L15 medium containing 10% FBS without CO2, and other cell lines were cultured in DMEM medium containing 10% FBS CO2 in the incubator.
(§4) MTT assay was used to identify 14 different cell lines (human lung cancer cells NCI-H460, NCI-H1299, and A549; human breast cancer cells MDA-MB-231, MDA-MB-453, and MCF-7; human liver cancer cells Huh-7 and HepG2; human colon cancer cells coca-2, HT-29, and HCT116; and human cervical cancer cells HeLa) and 2 kinds of normal cell lines (human normal lung epithelial cells BEAS-2B, human normal breast epithelial cells MCF10-A) for quantitative analysis ([15]). In addition, 10-HCPT and palbociclib were used as positive control.
(§5) Cells were harvested during the logarithmic growth phase and seeded into 96-well plates at a density of 2.0×10^3 cells/well. After being incubated for 24 h, the cells were treated with different concentrations of various culture programs for 48 h. Afterwards, 20 μl of MTT solution (5 mg/ml) was added to each well, and the cells were incubated in a 5% CO2 atmosphere at 37°C for another 4 h. Then, the supernatant was discarded, and the formazan crystals were dissolved in 150 μl DMSO. Subsequently, the absorbance was measured at 570 nm via a Tecan microplate reader. The concentration that caused 50% inhibition of cell viability (IC50) values was calculated by GraphPad Software. Triplicate experiments were performed in parallel for each concentration, and the results are shown as the mean ± SD. The inhibitory ratio was calculated using the following formula: inhibitory ratio (%) = [1−(mean absorbance of experiment group)/(mean absorbance of control group)] × 100.

MCF10-A cells = experiment: MTT in vitro cytotoxicity, MCF10-A normal breast epithelial cells; assay type: cell-based, human; conditions: MCF-10A; MCF10-A human normal breast epithelial cells, MTT, 48 h; read-out: IC50
Protocol: as §3, §4, §5

Huh-7 cells = experiment: MTT in vitro cytotoxicity, Huh-7; assay type: cell-based, human; conditions: Huh-7 human liver cancer cells, MTT, 48 h; read-out: IC50
Protocol: as §3, §4, §5

NCI-H1299 cells = experiment: MTT in vitro cytotoxicity, NCI-H1299; assay type: cell-based, human; conditions: NCI-H1299 human lung cancer cells, MTT, 48 h; read-out: IC50
Protocol: as §3, §4, §5

BEAS-2B cells = experiment: MTT in vitro cytotoxicity, BEAS-2B normal lung epithelial cells; assay type: cell-based, human; conditions: BEAS-2B human normal lung epithelial cells, MTT, 48 h; read-out: IC50
Protocol: as §3, §4, §5

[2] = system: PI3K, AKT, p-PI3K, and p-AKT; experiment: Western blot of PI3K/AKT pathway-related proteins in NCI-H460; assay type: cell-based, human; conditions: NCI-H460, 0, 0.5, 1, 2 μM for 24 h
Protocol: as §1, §2

Coca-2 cells = experiment: MTT in vitro cytotoxicity, Coca-2; assay type: cell-based, human; conditions: Coca-2 human colon cancer cells, MTT, 48 h; read-out: IC50
Protocol: as §3, §4, §5

NCI-H460 cells [3] = experiment: MTT in vitro cytotoxicity, NCI-H460; assay type: cell-based, human; conditions: NCI-H460 human lung cancer cells, MTT, 48 h; read-out: IC50
Protocol: as §3, §4, §5

Hela cells = experiment: MTT in vitro cytotoxicity, Hela; assay type: cell-based, human; conditions: Hela human cervical cancer cells, MTT, 48 h; read-out: IC50
Protocol: as §3, §4, §5

HT-29 cells = experiment: MTT in vitro cytotoxicity, HT-29; assay type: cell-based, human; conditions: HT-29 human colon cancer cells, MTT, 48 h; read-out: IC50
Protocol: as §3, §4, §5

NCI-H460 cells [4] = experiment: Annexin V/PI apoptosis by flow cytometry, NCI-H460; assay type: cell-based, human; conditions: same concentration (not given)
Protocol: NCI-H460 cells were harvested in logarithmic growth phase and seeded into six-well plates at a density of 5.0 × 10^3 cells/well. After being incubated for 24 h, the cells were harvested with 0.25% Trypsin after exposed to various culture programs, washed with PBS, and re-suspended in 500 μl binding buffer. The experiment was triply replicated. Then, the cells were stained by adding to 5 μl Annexin V-FITC and 5 μl PI for15 min at 25°C in the dark. Finally, the cells were detected and analyzed using a flow cytometer with FlowJo 7.6.1.

MCF-7 cells = experiment: MTT in vitro cytotoxicity, MCF-7; assay type: cell-based, human; conditions: MCF7; MCF-7 human breast cancer cells, MTT, 48 h; read-out: IC50
Protocol: as §3, §4, §5

A549 cells = experiment: MTT in vitro cytotoxicity, A549; assay type: cell-based, human; conditions: A549 human lung cancer cells, MTT, 48 h; read-out: IC50
Protocol: as §3, §4, §5

HCT116 cells = experiment: MTT in vitro cytotoxicity, HCT116; assay type: cell-based, human; conditions: HCT-116; HCT116 human colon cancer cells, MTT, 48 h; read-out: IC50
Protocol: as §3, §4, §5

MDA-MB-453 cells = experiment: MTT in vitro cytotoxicity, MDA-MB-453; assay type: cell-based, human; conditions: MDA-MB-453 human breast cancer cells, MTT, 48 h; read-out: IC50
Protocol: as §3, §4, §5

HepG2 cells = experiment: MTT in vitro cytotoxicity, HepG2; assay type: cell-based, human; conditions: HepG2 human liver cancer cells, MTT, 48 h; read-out: IC50
Protocol: as §3, §4, §5

SMILES: CC[C@]1(O)C(=O)OCc2c1cc1n(c2=O)Cc2cc3cc(OC(=O)CCCC(=O)N4CCN(c5ccc(Nc6ncc7c(C)c(C(C)=O)c(=O)n(C8CCCC8)c7n6)nc5)CC4)ccc3nc2-1 [HP-1, (R)-4-ethyl-4-hydroxy-3,14-dioxo-3,4,12,14-tetrahydro-1H-pyrano[3’,4’:6,7] indolizino[1,2-b]quinolin-9-yl5-(4-(6-((6-acetyl-8-cyclopentyl-5-methyl-7-oxo-7,8-dihydropyrido[2,3-d]pyrimidin-2-yl)amino)pyridin-3-yl)piperazin-1-yl)-5-oxopentanoate]
- melting point: 44.5 to 46.4 °C
- Protein expressions of Cyclin D, CDK4, CDK6, Rb, and p-Rb [1]: significantly decreased
- IC50 (MDA-MB-231 cells): 15.3 ± 2.51 µM
- IC50 (MCF10-A cells): 32.4 ± 1.33 µM
- IC50 (Huh-7 cells): 9.48 ± 1.59 µM
- IC50 (NCI-H1299 cells): 2.29 ± 0.02 µM
- IC50 (BEAS-2B cells): 36.4 ± 0.43 µM
- expression of PI3K, AKT, p-PI3K, and p-AKT [2]: decreased
- IC50 (Coca-2 cells): 15.2 ± 0.54 µM
- IC50 (NCI-H460 cells [3]): 0.96 ± 0.01 µM
- IC50 (Hela cells): 5.46 ± 0.08 µM
- IC50 (HT-29 cells): 12.4 ± 1.62 µM
- Q1 (annexin V/PI quadrant) (NCI-H460 cells [4]; NCI-H460, 12h): 0.32
- Q2 (annexin V/PI quadrant) (NCI-H460 cells [4]; NCI-H460, 12h): 9.93
- Q3 (annexin V/PI quadrant) (NCI-H460 cells [4]; NCI-H460, 12h): 13.4
- Q4 (annexin V/PI quadrant) (NCI-H460 cells [4]; NCI-H460, 12h): 76.4
- Q1 (annexin V/PI quadrant) (NCI-H460 cells [4]; NCI-H460, 24h): 0.80
- Q2 (annexin V/PI quadrant) (NCI-H460 cells [4]; NCI-H460, 24h): 33.7
- Q3 (annexin V/PI quadrant) (NCI-H460 cells [4]; NCI-H460, 24h): 31.4
- Q4 (annexin V/PI quadrant) (NCI-H460 cells [4]; NCI-H460, 24h): 34.0
- Q1 (annexin V/PI quadrant) (NCI-H460 cells [4]; NCI-H460, 36h): 0.66
- Q2 (annexin V/PI quadrant) (NCI-H460 cells [4]; NCI-H460, 36h): 61.8
- Q3 (annexin V/PI quadrant) (NCI-H460 cells [4]; NCI-H460, 36h): 33.6
- Q4 (annexin V/PI quadrant) (NCI-H460 cells [4]; NCI-H460, 36h): 3.91
- IC50 (MCF-7 cells): 10.3 ± 1.68 µM
- IC50 (A549 cells): 3.41 ± 0.22 µM
- IC50 (HCT116 cells): 17.1 ± 0.31 µM
- IC50 (MDA-MB-453 cells): 5.28 ± 0.81 µM
- IC50 (HepG2 cells): 2.57 ± 0.42 µM
